From ChEMBL document CHEMBL3124856, “Design, synthesis, and pharmacological evaluation of a novel series of pyridopyrazine-1,6-dione γ-secretase modulators” (J Med Chem, 2014)
Converted amounts (≈) assume the structure as drawn.

What was measured:
MDR1 (human) [1] = assay: Efflux ratio of permeability in MDCK cells expressing human MDR1; format: ADME, cell-based, Canis lupus familiaris; details: dog
[2] = Apparent intrinsic clearance in human liver microsomes; format: ADME; details: read-out: CLH(app)
[3] = Apparent intrinsic clearance in rat liver microsomes; format: ADME; details: read-out: CLH(app)
Gamma-secretase [4] = assay: Modulation of gamma-secretase (unknown origin) expressed in CHO cells overexpressing human wild type APP assessed as reduction of amyloid beta 42 level after 24 hrs by ELISA; format: cell-based
Cytochrome P450 1A2 = target: T1, Cytochrome P450 1A2 (Homo sapiens, UniProt P05177); assay: Inhibition of CYP1A2 (unknown origin); format: ADME
T1 sequence (P05177 whole entry): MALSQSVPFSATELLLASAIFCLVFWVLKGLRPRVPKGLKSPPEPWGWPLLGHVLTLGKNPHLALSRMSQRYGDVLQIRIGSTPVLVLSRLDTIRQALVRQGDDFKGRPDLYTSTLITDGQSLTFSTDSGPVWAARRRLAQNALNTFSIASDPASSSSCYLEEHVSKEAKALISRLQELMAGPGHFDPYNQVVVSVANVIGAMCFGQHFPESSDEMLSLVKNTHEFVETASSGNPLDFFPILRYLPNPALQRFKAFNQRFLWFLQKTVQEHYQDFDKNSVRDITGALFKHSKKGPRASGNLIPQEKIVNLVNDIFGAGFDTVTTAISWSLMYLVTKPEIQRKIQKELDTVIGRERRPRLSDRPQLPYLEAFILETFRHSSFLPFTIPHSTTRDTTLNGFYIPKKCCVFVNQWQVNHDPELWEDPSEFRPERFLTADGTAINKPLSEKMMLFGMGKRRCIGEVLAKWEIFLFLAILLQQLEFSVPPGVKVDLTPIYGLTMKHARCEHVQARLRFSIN

[5] = Drug uptake in Hartley guinea pig brain at 10 mg/kg, po after 4 hrs post dosing; format: ADME, organism-based, Cavia porcellus; set-up: dose 10 mg/kg, route oral; details: read-out: Drug uptake
Cavia porcellus [6] = assay: Antialzheimer activity in Hartley guinea pig assessed as reduction in brain total amyloid beta level at 10 mg/kg, po measured after 4 hrs post dosing relative to control; format: functional; set-up: scale not given: the % may be the effect or the level left
[7] = Fraction unbound in Hartley guinea pig brain; format: ADME, tissue-based, Cavia porcellus
MDR1 (human) [8] = assay: Permeability from apical to basolateral side in MDCK cells expressing human MDR; format: ADME, cell-based, Canis lupus familiaris; details: dog, read-out: permeability
[9] = Drug uptake in Hartley guinea pig brain at 30 mg/kg, po after 4 hrs post dosing; format: ADME, organism-based, Cavia porcellus; set-up: dose 30 mg/kg, route oral; details: read-out: Drug uptake
[10] = Plasma concentration in rat at 5 mg/kg, po after 1 hr; format: ADME, organism-based; set-up: dose 5 mg/kg, route oral
[11] = Volume of distribution at steady state in rat at 1 mg/kg, iv; format: ADME, organism-based; set-up: dose 1 mg/kg, route intravenous; details: in vivo, read-out: Vdss
Cavia porcellus [12] = assay: Antialzheimer activity in Hartley guinea pig assessed as reduction in brain amyloid beta 40 level at 30 mg/kg, po measured after 4 hrs post dosing relative to control; format: functional; set-up: scale not given: the % may be the effect or the level left
[13] = Aqueous kinetic solubility of the compound at pH 6.5; format: physicochemical; details: read-out: Kinetic_solubility
[14] = Plasma concentration in Hartley guinea pig at 90 mg/kg, po after 4 hrs post dosing; format: ADME, organism-based, Cavia porcellus; set-up: dose 90 mg/kg, route oral
Cavia porcellus [15] = assay: Antialzheimer activity in Hartley guinea pig assessed as reduction in brain amyloid beta 42 level at 10 mg/kg, po measured after 4 hrs post dosing relative to control; format: functional; set-up: scale not given: the % may be the effect or the level left
Cytochrome P450 2C8 = target: T2, Cytochrome P450 2C8 (Homo sapiens, UniProt P10632); assay: Inhibition of CYP2C8 (unknown origin); format: ADME
T2 sequence (P10632 whole entry): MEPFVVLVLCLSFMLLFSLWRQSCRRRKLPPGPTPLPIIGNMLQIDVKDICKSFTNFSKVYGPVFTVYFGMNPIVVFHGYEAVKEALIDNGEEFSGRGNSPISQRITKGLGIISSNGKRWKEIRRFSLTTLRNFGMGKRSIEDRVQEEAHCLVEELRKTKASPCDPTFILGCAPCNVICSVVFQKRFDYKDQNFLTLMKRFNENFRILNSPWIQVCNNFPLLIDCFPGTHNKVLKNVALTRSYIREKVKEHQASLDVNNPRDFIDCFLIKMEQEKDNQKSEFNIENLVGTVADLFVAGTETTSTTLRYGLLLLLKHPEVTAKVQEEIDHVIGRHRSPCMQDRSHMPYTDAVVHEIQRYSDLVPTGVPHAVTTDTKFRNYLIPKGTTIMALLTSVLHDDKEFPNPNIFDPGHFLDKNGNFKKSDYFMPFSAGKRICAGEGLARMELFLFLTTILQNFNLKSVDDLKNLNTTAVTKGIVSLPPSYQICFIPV

[16] = Passive apparent permeability from apical to basolateral side in RRCK cells; format: ADME, cell-based, Canis lupus familiaris, MDCKII-LE; details: dog, MDCK
Cavia porcellus [17] = assay: Antialzheimer activity in Hartley guinea pig assessed as reduction in brain amyloid beta 40 level at 90 mg/kg, po measured after 4 hrs post dosing relative to control; format: functional; set-up: scale not given: the % may be the effect or the level left
Cavia porcellus [18] = assay: Antialzheimer activity in Hartley guinea pig assessed as reduction in brain amyloid beta 40 level at 10 mg/kg, po measured after 4 hrs post dosing relative to control; format: functional; set-up: scale not given: the % may be the effect or the level left
[19] = Drug uptake in rat brain at 5 mg/kg, po after 1 hr; format: ADME, organism-based; set-up: dose 5 mg/kg, route oral; details: read-out: Drug uptake
Gamma-secretase [20] = assay: Modulation of gamma secretase in HEK293 NdeltaE cells assessed as inhibition of notch signalling; format: cell-based, Homo sapiens
[21] = Plasma concentration in Hartley guinea pig at 30 mg/kg, po after 4 hrs post dosing; format: ADME, organism-based, Cavia porcellus; set-up: dose 30 mg/kg, route oral
Cavia porcellus [22] = assay: Antialzheimer activity in po dosed Hartley guinea pig assessed as reduction in brain amyloid beta 40 level measured after 4 hrs post dosing; format: functional, organism-based
[23] = Drug uptake in Hartley guinea pig cerebrospinal fluid at 30 mg/kg, po after 4 hrs post dosing; format: ADME, organism-based, Cavia porcellus; set-up: dose 30 mg/kg, route oral; details: read-out: Drug uptake
[24] = Fraction unbound in rat plasma; format: ADME, cell-free
[25] = Drug uptake in Hartley guinea pig cerebrospinal fluid at 90 mg/kg, po after 4 hrs post dosing; format: ADME, organism-based, Cavia porcellus; set-up: dose 90 mg/kg, route oral; details: read-out: Drug uptake
Cavia porcellus [26] = assay: Antialzheimer activity in Hartley guinea pig assessed as reduction in brain amyloid beta 42 level at 90 mg/kg, po measured after 4 hrs post dosing relative to control; format: functional; set-up: scale not given: the % may be the effect or the level left
[27] = Fraction unbound in rat brain; format: ADME, tissue-based
Cavia porcellus [28] = assay: Antialzheimer activity in Hartley guinea pig assessed as reduction in brain amyloid beta 42 level at 30 mg/kg, po measured after 4 hrs post dosing relative to control; format: functional; set-up: scale not given: the % may be the effect or the level left
Cytochrome P450 2C9 = Cytochrome P450 2C9 (Homo sapiens, UniProt P11712); assay: Inhibition of CYP2C9 (unknown origin); format: ADME
Cavia porcellus [29] = assay: Antialzheimer activity in Hartley guinea pig assessed as increase in brain amyloid beta 38 level at 10 mg/kg, po measured after 4 hrs post dosing relative to control; format: functional
Cavia porcellus [30] = assay: Antialzheimer activity in po dosed Hartley guinea pig assessed as reduction in brain amyloid beta 42 level measured after 4 hrs post dosing; format: functional, organism-based
[31] = Lipophilicity, log D of the compound by shake flask method; format: physicochemical; details: octanol/water
[32] = Clearance in rat at 1 mg/kg, iv; format: ADME, organism-based; set-up: dose 1 mg/kg, route intravenous; details: in vivo
[33] = Plasma concentration in Hartley guinea pig at 10 mg/kg, po after 4 hrs post dosing; format: ADME, organism-based, Cavia porcellus; set-up: dose 10 mg/kg, route oral
Cavia porcellus [34] = assay: Antialzheimer activity in Hartley guinea pig assessed as reduction in brain total amyloid beta level at 90 mg/kg, po measured after 4 hrs post dosing relative to control; format: functional; set-up: scale not given: the % may be the effect or the level left
Cavia porcellus [35] = assay: Antialzheimer activity in Hartley guinea pig assessed as increase in brain amyloid beta 38 level at 90 mg/kg, po measured after 4 hrs post dosing relative to control; format: functional
Cytochrome P450 3A4 = Cytochrome P450 3A4 (Homo sapiens, UniProt P08684); assay: Inhibition of CYP3A4 (unknown origin); format: ADME
[36] = Drug uptake in Hartley guinea pig brain at 90 mg/kg, po after 4 hrs post dosing; format: ADME, organism-based, Cavia porcellus; set-up: dose 90 mg/kg, route oral; details: read-out: Drug uptake
[37] = Ratio of unbound drug level in brain to plasma in rat; format: ADME
[38] = Fraction unbound in Hartley guinea pig plasma; format: ADME, cell-free, Cavia porcellus
Cytochrome P450 2C19 = Cytochrome P450 2C19 (Homo sapiens, UniProt P33261); assay: Inhibition of CYP2C19 (unknown origin); format: ADME
Cavia porcellus [39] = assay: Antialzheimer activity in Hartley guinea pig assessed as reduction in brain total amyloid beta level at 30 mg/kg, po measured after 4 hrs post dosing relative to control; format: functional; set-up: scale not given: the % may be the effect or the level left
Cytochrome P450 2D6 = Cytochrome P450 2D6 (Homo sapiens, UniProt P10635); assay: Inhibition of CYP2D6 (unknown origin); format: ADME
Cavia porcellus [40] = assay: Antialzheimer activity in Hartley guinea pig assessed as increase in brain amyloid beta 38 level at 30 mg/kg, po measured after 4 hrs post dosing relative to control; format: functional
[41] = Half life in rat at 1 mg/kg, iv; format: ADME, organism-based; set-up: dose 1 mg/kg, route intravenous; details: in vivo
[42] = Ratio of drug uptake in brain to plasma in rat at 5 mg/kg, po after 1 hr; format: ADME, organism-based; set-up: dose 5 mg/kg, route oral; details: read-out: BPR
[43] = Bioavailability in rat at 1 mg/kg, iv and 5 mg/kg, po; format: ADME, organism-based; details: in vivo
[44] = Drug uptake in Hartley guinea pig cerebrospinal fluid at 10 mg/kg, po after 4 hrs post dosing; format: ADME, organism-based, Cavia porcellus; set-up: dose 10 mg/kg, route oral; details: read-out: Drug uptake

Chain of Cytochrome P450 2D6 (P10635 whole entry): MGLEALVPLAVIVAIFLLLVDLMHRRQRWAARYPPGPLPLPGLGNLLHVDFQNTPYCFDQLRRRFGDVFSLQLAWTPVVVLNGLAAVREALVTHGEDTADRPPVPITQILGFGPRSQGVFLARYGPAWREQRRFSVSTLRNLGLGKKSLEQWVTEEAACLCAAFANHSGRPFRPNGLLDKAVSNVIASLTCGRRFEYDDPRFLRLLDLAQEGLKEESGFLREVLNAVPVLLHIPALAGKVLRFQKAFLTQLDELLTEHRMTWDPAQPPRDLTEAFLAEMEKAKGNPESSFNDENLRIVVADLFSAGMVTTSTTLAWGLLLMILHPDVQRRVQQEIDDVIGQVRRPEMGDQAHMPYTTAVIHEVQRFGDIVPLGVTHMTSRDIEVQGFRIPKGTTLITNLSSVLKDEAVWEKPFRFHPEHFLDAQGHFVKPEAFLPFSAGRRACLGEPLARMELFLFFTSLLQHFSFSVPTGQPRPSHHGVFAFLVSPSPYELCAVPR
Chain of Cytochrome P450 2C19 (P33261 whole entry): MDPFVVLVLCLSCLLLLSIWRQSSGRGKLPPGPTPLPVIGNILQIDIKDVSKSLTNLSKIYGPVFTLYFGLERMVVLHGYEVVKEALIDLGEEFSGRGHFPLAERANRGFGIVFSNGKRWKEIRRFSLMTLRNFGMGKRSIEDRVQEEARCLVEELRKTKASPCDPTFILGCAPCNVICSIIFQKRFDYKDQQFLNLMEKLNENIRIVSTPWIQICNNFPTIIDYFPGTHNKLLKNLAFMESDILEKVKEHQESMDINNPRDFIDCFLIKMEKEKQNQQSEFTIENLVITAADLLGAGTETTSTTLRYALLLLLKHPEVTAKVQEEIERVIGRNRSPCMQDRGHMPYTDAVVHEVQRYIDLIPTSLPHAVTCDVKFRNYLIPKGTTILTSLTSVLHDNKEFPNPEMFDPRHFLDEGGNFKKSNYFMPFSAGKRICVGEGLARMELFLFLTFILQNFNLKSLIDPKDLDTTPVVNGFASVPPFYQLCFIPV
Chain of Cytochrome P450 2C9 (P11712 whole entry): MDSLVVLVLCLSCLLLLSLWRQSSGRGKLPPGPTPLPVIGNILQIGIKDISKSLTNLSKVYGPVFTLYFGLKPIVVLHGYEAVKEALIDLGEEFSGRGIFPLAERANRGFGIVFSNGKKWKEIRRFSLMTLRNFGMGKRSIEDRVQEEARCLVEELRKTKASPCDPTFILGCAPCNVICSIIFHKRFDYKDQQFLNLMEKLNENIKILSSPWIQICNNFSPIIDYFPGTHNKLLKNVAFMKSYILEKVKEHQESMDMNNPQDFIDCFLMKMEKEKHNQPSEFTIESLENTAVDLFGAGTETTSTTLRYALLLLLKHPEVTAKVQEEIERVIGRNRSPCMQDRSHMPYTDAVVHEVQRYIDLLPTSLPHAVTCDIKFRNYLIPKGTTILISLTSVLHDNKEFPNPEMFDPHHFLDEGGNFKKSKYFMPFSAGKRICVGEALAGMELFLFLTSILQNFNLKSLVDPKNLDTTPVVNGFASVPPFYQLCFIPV
Chain of Cytochrome P450 3A4 (P08684 whole entry): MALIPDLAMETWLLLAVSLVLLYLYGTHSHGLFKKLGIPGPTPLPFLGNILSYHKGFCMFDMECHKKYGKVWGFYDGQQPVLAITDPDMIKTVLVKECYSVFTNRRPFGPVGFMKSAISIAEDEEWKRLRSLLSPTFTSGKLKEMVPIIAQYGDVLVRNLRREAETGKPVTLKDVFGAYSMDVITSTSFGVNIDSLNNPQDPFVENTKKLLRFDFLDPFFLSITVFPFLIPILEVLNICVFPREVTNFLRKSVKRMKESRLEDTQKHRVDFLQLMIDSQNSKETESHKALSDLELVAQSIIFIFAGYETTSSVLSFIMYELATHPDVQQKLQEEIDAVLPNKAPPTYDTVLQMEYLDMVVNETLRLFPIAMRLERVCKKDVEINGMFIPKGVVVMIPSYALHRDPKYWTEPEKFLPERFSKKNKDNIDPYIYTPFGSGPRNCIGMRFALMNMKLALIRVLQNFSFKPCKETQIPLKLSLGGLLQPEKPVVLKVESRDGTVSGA

## Cc1cn(-c2ccc3n(c2=O)CCN(CCOc2cccc4ccc(F)cc24)C3=O)cn1
MDR1 (human) [1]
  efflux ratio: 1.5
[2]
  CLint scaled: 30 mL/min/kg
[3]
  CLint scaled: 469 mL/min/kg
Gamma-secretase [4]
  IC50: 0.015 µM

## Cc1cn(-c2ccc3n(c2=O)CCN(CCOc2ccc(Cl)cc2C(F)(F)F)C3=O)cn1
Cytochrome P450 1A2
  IC50: > 30 µM
[5]
  concentration at 4 h: 2910 nM
MDR1 (human) [1]
  efflux ratio: 1.8
Cavia porcellus [6]
  Activity: 100%
[7]
  fraction unbound: 0.008
MDR1 (human) [8]
  Papp A→B: 5.8 ×10⁻⁶ cm/s
[9]
  concentration at 4 h: 9160 nM
[10]
  concentration at 1 h: 4140 ng/mL
[11]
  Vd: 0.69 L/kg
Cavia porcellus [12]
  Activity: 69%
[13]
  solubility kinetic: 95.6 µM (≈ 44.6 µg/mL)
[14]
  concentration at 4 h: 7300 nM
Cavia porcellus [15]
  Activity: 81%
Cytochrome P450 2C8
  IC50: 12.3 µM
[16]
  Papp A→B: 10.5 ×10⁻⁶ cm/s
Cavia porcellus [17]
  Activity: 37%
Cavia porcellus [18]
  Activity: 88%
[19]
  concentration at 1 h: 1000 ng/mL
Gamma-secretase [20]
  IC50: > 50 µM
[21]
  concentration at 4 h: 819 nM
Cavia porcellus [22]
  Activity: Dose-dependent effect
[2]
  CLint scaled: < 8 mL/min/kg
[23]
  concentration at 4 h: 35.7 nM
[24]
  fraction unbound: 0.0063
[25]
  concentration at 4 h: 239 nM
Cavia porcellus [26]
  Activity: 32%
[27]
  fraction unbound: 0.0084
Cavia porcellus [28]
  Activity: 56%
Cytochrome P450 2C9
  IC50: 15.4 µM
Cavia porcellus [29]
  Activity: 102%
Cavia porcellus [30]
  Activity: Dose-dependent effect
[31]
  logD: 3.32
[32]
  clearance: 1.41 mL/min/kg
[33]
  concentration at 4 h: 367 nM
Cavia porcellus [34]
  Activity: 82%
Cavia porcellus [35]
  Activity: 131%
Cytochrome P450 3A4
  IC50: > 30 µM
[36]
  concentration at 4 h: 52400 nM
[37]
  Kp uu: 0.32
[38]
  fraction unbound: 0.07
Cytochrome P450 2C19
  IC50: > 30 µM
Cavia porcellus [39]
  Activity: 92%
Cytochrome P450 2D6
  IC50: > 30 µM
Cavia porcellus [40]
  Activity: 108%
[41]
  half-life: 6.88 h
[42]
  Kp at 1 h: 0.24
[3]
  CLint scaled: 47.6 mL/min/kg
[43]
  bioavailability: 88%
[44]
  concentration at 4 h: 12.7 nM
Gamma-secretase [4]
  IC50: 0.101 µM
